# Experimental data published in PMC6199744, “Development of Chemical Proteomics for the Folateome and Analysis of the Kinetoplastid Folateome” (ACS Infectious Diseases, 2018).
# Where two headings read alike, the source gives them in different places.
# How the values were obtained:
# Type in all cases: binding
# [1] = molecular target: T1, HeLa cell extract proteins (Homo sapiens, UniProt O14744)
# T1 construct: endogenous in cells; host or cells: HeLa cell extract
# [2] = molecular target: T2, HeLa cell extract proteins (Homo sapiens, UniProt O60884)
# T2 construct: endogenous in cells; host or cells: HeLa cell extract
# [3] = molecular target: T3, HeLa cell extract proteins (Homo sapiens, UniProt P02786)
# T3 construct: endogenous in cells; host or cells: HeLa cell extract
# [4] = molecular target: T4, HeLa cell extract proteins (Homo sapiens, UniProt P04083)
# T4 construct: endogenous in cells; host or cells: HeLa cell extract
# T4 sequence (P04083 1-346): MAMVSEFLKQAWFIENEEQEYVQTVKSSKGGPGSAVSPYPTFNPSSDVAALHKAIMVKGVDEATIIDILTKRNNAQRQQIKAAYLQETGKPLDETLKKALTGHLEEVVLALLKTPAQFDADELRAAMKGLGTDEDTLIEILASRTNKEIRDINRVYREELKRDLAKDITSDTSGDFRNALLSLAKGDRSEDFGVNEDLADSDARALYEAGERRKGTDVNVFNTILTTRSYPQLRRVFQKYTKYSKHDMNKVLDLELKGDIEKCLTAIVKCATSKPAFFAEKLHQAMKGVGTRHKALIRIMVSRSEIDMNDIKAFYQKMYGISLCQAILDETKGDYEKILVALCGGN
# [5] = molecular target: T5, HeLa cell extract proteins (Homo sapiens, UniProt P07237)
# T5 construct: endogenous in cells; host or cells: HeLa cell extract
# [6] = molecular target: T6, HeLa cell extract proteins (Homo sapiens, UniProt P32320)
# T6 construct: endogenous in cells; host or cells: HeLa cell extract
# [7] = molecular target: T7, HeLa cell extract proteins (Homo sapiens, UniProt Q01518)
# T7 construct: endogenous in cells; host or cells: HeLa cell extract
# [8] = molecular target: T8, HeLa cell extract proteins (Homo sapiens, UniProt Q9H3U1)
# T8 construct: endogenous in cells; host or cells: HeLa cell extract
# T8 sequence (Q9H3U1 1-944): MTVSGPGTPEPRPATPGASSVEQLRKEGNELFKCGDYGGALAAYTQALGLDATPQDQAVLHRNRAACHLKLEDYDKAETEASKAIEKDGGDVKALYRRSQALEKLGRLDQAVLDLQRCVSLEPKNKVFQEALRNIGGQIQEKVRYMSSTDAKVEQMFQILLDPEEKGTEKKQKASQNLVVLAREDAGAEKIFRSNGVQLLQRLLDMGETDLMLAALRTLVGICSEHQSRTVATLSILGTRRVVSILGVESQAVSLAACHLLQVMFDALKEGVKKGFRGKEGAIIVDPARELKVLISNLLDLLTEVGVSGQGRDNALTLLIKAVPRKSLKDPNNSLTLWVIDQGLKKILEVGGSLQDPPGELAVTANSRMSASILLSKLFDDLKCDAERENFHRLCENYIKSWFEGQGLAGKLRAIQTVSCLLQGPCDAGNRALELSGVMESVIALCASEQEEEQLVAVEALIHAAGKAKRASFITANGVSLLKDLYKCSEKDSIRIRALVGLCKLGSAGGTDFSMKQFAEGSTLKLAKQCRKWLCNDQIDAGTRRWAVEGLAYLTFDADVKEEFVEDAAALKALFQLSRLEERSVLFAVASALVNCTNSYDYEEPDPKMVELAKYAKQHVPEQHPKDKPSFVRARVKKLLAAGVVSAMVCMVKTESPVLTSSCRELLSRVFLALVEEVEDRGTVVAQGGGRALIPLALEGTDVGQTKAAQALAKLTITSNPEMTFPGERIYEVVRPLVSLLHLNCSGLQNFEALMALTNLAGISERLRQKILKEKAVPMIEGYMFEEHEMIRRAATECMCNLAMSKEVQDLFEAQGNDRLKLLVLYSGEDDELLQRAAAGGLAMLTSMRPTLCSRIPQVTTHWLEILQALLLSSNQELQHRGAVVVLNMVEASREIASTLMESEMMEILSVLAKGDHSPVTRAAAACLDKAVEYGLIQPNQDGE
# [9] = molecular target: T9, HeLa cell extract proteins (Homo sapiens, UniProt Q9HB07)
# T9 construct: endogenous in cells; host or cells: HeLa cell extract
# T9 sequence (Q9HB07 48-376): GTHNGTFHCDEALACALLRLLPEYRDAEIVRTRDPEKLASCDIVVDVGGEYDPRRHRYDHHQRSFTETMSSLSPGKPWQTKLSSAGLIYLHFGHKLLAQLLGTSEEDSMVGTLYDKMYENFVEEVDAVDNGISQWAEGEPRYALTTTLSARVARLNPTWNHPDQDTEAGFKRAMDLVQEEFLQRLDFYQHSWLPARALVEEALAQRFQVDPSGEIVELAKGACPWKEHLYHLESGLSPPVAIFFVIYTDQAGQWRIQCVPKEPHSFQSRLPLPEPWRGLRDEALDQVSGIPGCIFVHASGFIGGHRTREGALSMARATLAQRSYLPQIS
# [10] = molecular target: T10, HeLa cell extract proteins (Homo sapiens, UniProt Q9HBU6)
# T10 construct: endogenous in cells; host or cells: HeLa cell extract
# T10 sequence (Q9HBU6 1-452): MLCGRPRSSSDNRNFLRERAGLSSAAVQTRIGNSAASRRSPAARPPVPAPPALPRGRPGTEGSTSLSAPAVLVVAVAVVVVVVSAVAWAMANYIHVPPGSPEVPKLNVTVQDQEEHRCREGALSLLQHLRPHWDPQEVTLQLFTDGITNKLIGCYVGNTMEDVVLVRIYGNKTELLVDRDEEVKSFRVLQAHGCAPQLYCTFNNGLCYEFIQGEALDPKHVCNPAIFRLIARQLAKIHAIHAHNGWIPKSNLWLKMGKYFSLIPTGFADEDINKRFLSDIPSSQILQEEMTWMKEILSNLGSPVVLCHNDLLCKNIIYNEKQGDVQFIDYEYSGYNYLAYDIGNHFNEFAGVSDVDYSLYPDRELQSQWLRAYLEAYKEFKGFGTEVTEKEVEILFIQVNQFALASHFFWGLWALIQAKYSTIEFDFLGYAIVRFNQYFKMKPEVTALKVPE
# [11] = molecular target: T11, HeLa cell extract proteins (Homo sapiens, UniProt Q9NR09)
# T11 construct: endogenous in cells; host or cells: HeLa cell extract
# [12] = HeLa, captured protein C12ORF10
# [13] = HeLa, protein BIRC6 (B[…] REPEAT-CONTAINING 6)
# [14] = captured protein C12ORF10, HeLa
# T5 sequence (P07237 18-508): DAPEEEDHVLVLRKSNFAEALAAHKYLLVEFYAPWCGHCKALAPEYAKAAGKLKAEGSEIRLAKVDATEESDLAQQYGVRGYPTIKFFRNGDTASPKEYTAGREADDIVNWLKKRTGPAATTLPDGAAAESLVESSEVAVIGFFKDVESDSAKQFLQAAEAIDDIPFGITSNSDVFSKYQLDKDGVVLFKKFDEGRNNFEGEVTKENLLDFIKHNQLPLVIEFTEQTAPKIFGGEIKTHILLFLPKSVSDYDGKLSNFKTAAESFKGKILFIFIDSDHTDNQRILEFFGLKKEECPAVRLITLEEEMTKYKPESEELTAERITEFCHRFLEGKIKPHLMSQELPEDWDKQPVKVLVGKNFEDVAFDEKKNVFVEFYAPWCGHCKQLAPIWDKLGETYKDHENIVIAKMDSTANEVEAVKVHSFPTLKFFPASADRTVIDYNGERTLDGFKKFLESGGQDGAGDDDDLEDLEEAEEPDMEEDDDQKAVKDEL
# T3 sequence (P02786 whole entry): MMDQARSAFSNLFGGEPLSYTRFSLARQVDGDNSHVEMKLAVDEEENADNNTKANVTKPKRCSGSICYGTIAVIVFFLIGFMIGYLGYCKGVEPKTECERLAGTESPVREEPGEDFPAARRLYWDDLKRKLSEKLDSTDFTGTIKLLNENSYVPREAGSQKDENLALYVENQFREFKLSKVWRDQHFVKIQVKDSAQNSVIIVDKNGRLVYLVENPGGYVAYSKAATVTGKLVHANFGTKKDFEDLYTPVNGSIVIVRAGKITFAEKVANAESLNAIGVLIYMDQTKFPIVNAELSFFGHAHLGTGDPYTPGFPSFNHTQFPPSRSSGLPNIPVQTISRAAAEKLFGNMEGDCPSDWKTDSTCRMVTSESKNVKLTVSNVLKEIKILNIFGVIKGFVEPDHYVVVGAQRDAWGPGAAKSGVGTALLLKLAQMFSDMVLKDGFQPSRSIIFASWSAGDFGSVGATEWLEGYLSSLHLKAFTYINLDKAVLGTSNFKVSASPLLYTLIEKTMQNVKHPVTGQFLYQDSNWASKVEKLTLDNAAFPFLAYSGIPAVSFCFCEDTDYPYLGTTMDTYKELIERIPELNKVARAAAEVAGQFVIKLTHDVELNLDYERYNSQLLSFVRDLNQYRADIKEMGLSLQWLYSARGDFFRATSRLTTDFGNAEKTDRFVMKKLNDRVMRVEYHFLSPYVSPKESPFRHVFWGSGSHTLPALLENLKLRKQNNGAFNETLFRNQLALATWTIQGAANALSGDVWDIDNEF
# T2 sequence (O60884 whole entry): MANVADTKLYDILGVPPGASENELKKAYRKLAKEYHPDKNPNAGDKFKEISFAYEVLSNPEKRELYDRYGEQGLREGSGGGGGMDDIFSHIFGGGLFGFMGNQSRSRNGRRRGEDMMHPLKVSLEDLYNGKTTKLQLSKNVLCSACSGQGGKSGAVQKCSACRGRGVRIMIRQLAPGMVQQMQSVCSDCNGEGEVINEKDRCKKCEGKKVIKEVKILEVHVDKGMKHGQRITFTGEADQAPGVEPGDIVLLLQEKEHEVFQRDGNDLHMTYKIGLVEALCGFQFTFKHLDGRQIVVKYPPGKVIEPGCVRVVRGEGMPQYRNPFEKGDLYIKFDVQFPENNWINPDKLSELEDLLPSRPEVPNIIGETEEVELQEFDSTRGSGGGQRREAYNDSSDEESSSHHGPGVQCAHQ
# T7 sequence (Q01518 whole entry): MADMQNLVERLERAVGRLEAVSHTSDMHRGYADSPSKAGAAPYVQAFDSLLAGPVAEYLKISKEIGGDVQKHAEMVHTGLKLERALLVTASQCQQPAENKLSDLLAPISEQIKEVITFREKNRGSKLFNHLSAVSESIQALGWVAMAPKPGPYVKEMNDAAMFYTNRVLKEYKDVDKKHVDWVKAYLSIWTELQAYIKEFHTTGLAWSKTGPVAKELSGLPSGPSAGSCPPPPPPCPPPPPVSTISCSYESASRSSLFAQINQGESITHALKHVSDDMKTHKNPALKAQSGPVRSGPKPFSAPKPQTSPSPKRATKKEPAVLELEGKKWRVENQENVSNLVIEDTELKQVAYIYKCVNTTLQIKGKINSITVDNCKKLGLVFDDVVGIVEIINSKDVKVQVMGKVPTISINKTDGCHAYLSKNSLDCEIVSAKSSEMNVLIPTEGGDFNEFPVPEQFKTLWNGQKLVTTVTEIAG
# T6 sequence (P32320 whole entry): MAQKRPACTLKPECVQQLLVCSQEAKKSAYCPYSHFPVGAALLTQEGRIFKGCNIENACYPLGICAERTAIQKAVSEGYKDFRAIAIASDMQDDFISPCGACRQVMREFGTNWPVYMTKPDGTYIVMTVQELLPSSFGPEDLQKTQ
# T1 sequence (O14744 whole entry): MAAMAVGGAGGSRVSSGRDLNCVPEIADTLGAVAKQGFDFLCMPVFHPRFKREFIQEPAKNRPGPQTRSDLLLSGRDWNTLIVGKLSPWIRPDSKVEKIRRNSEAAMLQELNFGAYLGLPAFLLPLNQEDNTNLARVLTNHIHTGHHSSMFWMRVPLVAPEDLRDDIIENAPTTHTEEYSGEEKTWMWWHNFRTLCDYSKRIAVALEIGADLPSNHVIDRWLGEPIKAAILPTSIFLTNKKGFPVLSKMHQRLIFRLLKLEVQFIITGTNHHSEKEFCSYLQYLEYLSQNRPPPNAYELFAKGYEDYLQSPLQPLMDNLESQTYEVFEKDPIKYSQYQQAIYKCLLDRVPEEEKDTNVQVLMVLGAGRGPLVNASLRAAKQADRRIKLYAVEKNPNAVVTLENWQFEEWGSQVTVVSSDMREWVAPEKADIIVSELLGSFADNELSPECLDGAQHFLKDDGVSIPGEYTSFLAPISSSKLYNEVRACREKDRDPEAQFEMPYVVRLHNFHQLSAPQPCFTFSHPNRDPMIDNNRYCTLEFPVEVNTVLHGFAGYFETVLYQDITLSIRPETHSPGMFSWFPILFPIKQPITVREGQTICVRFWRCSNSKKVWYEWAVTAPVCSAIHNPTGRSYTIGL
SMILES,"fold changes relative to vehicle control ([1]; protein PRMT5, HeLa)","fold changes relative to vehicle control ([2]; protein DNAJA2, HeLa)","fold changes relative to vehicle control ([3]; HeLa, protein TFRC)","fold changes relative to vehicle control ([4]; protein ANXA1, HeLa)","fold changes relative to vehicle control ([5]; HeLa, protein P4HB)","fold changes relative to vehicle control ([6]; HeLa, captured protein CDA)","fold changes relative to vehicle control ([7]; HeLa, protein CAP1)","fold changes relative to vehicle control ([8]; HeLa, protein UNC45A)","fold changes relative to vehicle control [9, 12]","fold changes relative to vehicle control ([10]; protein ETNK1, HeLa)","fold changes relative to vehicle control [11, 13]","fold changes relative to vehicle control ([3]; protein TFRC, HeLa)","fold changes relative to vehicle control ([5]; protein P4HB, HeLa)","fold changes relative to vehicle control ([6]; captured protein CDA, HeLa)","fold changes relative to vehicle control ([7]; protein CAP1, HeLa)","fold changes relative to vehicle control ([8]; protein UNC45A, HeLa)","fold changes relative to vehicle control [9, 14]","fold changes relative to vehicle control ([10]; HeLa, protein ETNK1)","fold changes relative to vehicle control ([11]; HeLa, protein BIRC6)",other results
"Nc1nc2c(c(=O)[nH]1)N(C=O)C(CNc1ccc(C(=O)N[C@@H](CCC(=O)O)C(=O)O)cc1)CN2 (some centres unmarked) [LEU, leucovorin]",0.96,0.86,0.94,0.81,0.96,1.07,1,1.07,1.08,0.99,1.08,–,–,–,–,–,–,–,–,–
"Nc1nc2[nH]cc(CCc3ccc(C(=O)N[C@@H](CCC(=O)O)C(=O)O)cc3)c2c(=O)[nH]1 [PTX, pemetrexed]",–,–,–,–,–,–,–,–,–,–,–,–,–,–,–,–,–,–,–,fold changes relative to vehicle control [1]: 0.99; fold changes relative to vehicle control [2]: 0.9; fold changes relative to vehicle control [3]: 1.01; fold changes relative to vehicle control [4]: 0.98; fold changes relative to vehicle control [5]: 1.03; fold changes relative to vehicle control [6]: 1.06; fold changes relative to vehicle control [7]: 1.12; fold changes relative to vehicle control [8]: 0.99; fold changes relative to vehicle control [9]: 0.33; fold changes relative to vehicle control [10]: 0.91; fold changes relative to vehicle control [11]: 1
CCCCCCOc1ccc(Cc2cnc(N)nc2N)cc1 [compound 1],0.93,0.92,–,1.21,–,–,–,–,–,–,–,1.26,1.31,0.91,1.19,1.44,1.05,0.94,1.06,–
CCCCCCOc1cccc(Cc2cnc(N)nc2N)c1 [compound 2],1.12,1.14,–,1.86,–,–,–,–,–,–,–,1.96,1.79,0.88,2.26,1.53,1.06,0.99,0.92,–
Nc1nc2cccc(-c3ccccc3)c2n1Cc1ccc(Cl)c(Cl)c1 [compound 3],0.85,0.95,–,0.86,–,–,–,–,–,–,–,0.99,1,0.94,0.73,0.97,1.04,1.53,1.12,–
NCCOCCOCC(=O)Nc1nc2ncc(CNc3ccc(C(=O)NC(CCC(=O)O)C(=O)O)cc3)nc2c(=O)[nH]1 (centres unmarked) [compound 6],1.21,1.01,1.09,1.24,1.19,0.89,1.26,1.16,0.78,0.96,1.06,–,–,–,–,–,–,–,–,–
NCCCNc1ccc(C(=O)NC(CCC(=O)O)C(=O)O)cc1 (centres unmarked) [compound 7],1.05,0.91,0.87,0.87,0.92,1.63,0.94,1.05,1.12,1.01,1.12,–,–,–,–,–,–,–,–,–
